Active and inactive are the calls of the source. The rule behind the calls is not given here.
Assays:
[1] = biological target: T1, Succinyl-diaminopimelate desuccinylase (Haemophilus influenzae (strain ATCC 51907 / DSM 11121 / KW20 / Rd), UniProt P44514); assay: Inhibition of Haemophilus influenzae recombinant DapE
T1 sequence (P44514 whole entry): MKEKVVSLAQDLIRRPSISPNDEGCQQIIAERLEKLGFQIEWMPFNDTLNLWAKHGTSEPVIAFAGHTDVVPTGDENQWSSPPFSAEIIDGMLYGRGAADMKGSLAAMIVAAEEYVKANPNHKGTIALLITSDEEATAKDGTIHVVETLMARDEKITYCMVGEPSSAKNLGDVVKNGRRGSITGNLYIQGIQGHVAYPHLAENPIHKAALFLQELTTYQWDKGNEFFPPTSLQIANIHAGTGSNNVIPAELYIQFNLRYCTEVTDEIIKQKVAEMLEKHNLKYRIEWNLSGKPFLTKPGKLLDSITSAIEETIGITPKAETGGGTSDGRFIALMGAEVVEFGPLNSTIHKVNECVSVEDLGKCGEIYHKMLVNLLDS

[2] = biological target: T1, Succinyl-diaminopimelate desuccinylase; assay: Inhibition of Haemophilus influenzae recombinant DapE by competitive binding assay
[3] = biological target: T1, Succinyl-diaminopimelate desuccinylase; assay: Inhibition of Haemophilus influenzae recombinant DapE by non-competitive binding assay
[4] = system: Escherichia coli; assay: Antibacterial activity against Escherichia coli at 5 mg by antibiotic plate assay; assay type: functional, organism-based
[5] = system: Escherichia coli; assay: Antibacterial activity against Escherichia coli at 1 mg by antibiotic plate assay; assay type: functional, organism-based
[6] = system: Escherichia coli; assay: Antibacterial activity against Escherichia coli at 20 mg by antibiotic plate assay; assay type: functional, organism-based

Row | SMILES | IC50 [1] [µM] | also measured
1 | O=C(O)CCCS | 43 | 
2 | O=C(O)c1cccc(S)c1 | 34 | 
3 | O=C(NO)OCc1ccccc1 | > 1000 | 
4 | O=C(O)CCP(=O)(O)O | 1620 | Ki [1]: 800 µM
5 | O=C(O)c1ccc(B(O)O)cc1 | > 10000 | 
6 | O=C(O)c1cccc(B(O)O)c1 | > 10000 | 
7 | CC(=O)NO [ACETOHYDROXAMIC ACID] | > 1000 | 
8 | CC(C)(S)[C@H](N)C(=O)O | 13.7 | Ki [2]: 4.6 µM
9 | CCOC(=O)[C@H](CCc1ccccc1)N[C@@H](C)C(=O)N1CCC[C@H]1C(=O)O | > 1000 | 
10 | OB(O)c1cccs1 | 92 | Ki [3]: 67 µM
11 | NC(=S)Nc1ccccc1 [PHENYLTHIOUREA] | > 100 | 
12 | CCCCB(O)O [BUTYL BORONIC ACID] | ~10000 | 
13 | C[C@H](CS)C(=O)N1CCC[C@H]1C(=O)O |  | Activity [4]: Active; Activity [5]: Active; Activity [6]: Active
14 | CC(C)(S)[C@@H](N)C(=O)O [PENICILLAMINE] | 50 | 
